Measurements reported in US20210355104A1, “ADENOSINE RECEPTOR BINDING COMPOUNDS” (Nikang Therapeuticsm Inc., priority 2018, published 2021).
Several values for one entry are separate records, joined by “and”; a condition that tells them apart may be missing. Equal values may be shown once.

How the values were obtained:
[1] = test system: p-CREB (phosphorylated cAMP response-element binding protein) in human whole blood; assay: p-CREB assay in human whole blood by flow cytometry (NECA stimulation, CD4 staining); assay type: cell-based
How it was run: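 Fresh human whole blood preincubated 1 h at room temperature with compounds (11-point 1:3 series from 30 uM) plus adenosine deaminase, then stimulated 30 min with NECA and Rolipram (10× additions of 50 uM stocks). Cells lysed/fixed, permeabilised, stained for p-CREB and CD4, read by flow cytometry.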

Adenosine A2A receptor [2] = biological target: T1, Adenosine A2A receptor (Homo sapiens, UniProt P29274); assay: Adenosine A2A receptor competitive binding assay (Tag-lite HTRF); conditions: Tag-lite adenosine A2A receptor ligand binding
How it was run: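 Tag-lite HTRF competition: donor-labelled cells expressing human A2A were mixed with serially diluted compounds (DMSO 0.6% in dilutions) and red fluorescent A2A antagonist ligand (60 nM stock). Incubated 2 h at room temperature before HTRF readout.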

Adenosine A2A receptor [3] = biological target: T1, Adenosine A2A receptor; assay: cAMP assay in 293A cells stably expressing the adenosine A2A receptor (CGS21680 stimulation, HTRF); assay type: cell-based; design: expressed in transfected cells; host or cells: 293A cells (Invitrogen, Cat# R705-07) infected with A2A-expressing lentivirus (custom packaged by Biosettia), puromycin selected; conditions: 0.1% BSA
[4] = Homo sapiens, values separated by / are repeat determinations
[5] = 2 h room temperature, values separated by / are repeat determinations
[6] = 293A-A2AR cells, 8 nM CGS, values separated by / are repeat determinations, read-out: cAMP (nM) 0.1% BSA, 8 nM CGS
[7] = 293A-A2AR cells, 1 uM CGS, values separated by / are repeat determinations, read-out: cAMP (nM) 0.1% BSA, 1 uM CGS
[8] = 293A-A2AR cells, 8 nM CGS, read-out: cAMP (nM) 0.1% BSA, 8 nM CGS
[9] = 293A-A2AR cells, 1 uM CGS, read-out: cAMP (nM) 0.1% BSA, 1 uM CGS
[10] = Homo sapiens, replicate values separated by /
[11] = 293A cells stably expressing A2A receptor, 1 uM CGS21680 stimulation, replicate values separated by /, read-out: cAMP (nM) 0.1% BSA, 1 uM CGS

T1 sequence (P29274 whole entry): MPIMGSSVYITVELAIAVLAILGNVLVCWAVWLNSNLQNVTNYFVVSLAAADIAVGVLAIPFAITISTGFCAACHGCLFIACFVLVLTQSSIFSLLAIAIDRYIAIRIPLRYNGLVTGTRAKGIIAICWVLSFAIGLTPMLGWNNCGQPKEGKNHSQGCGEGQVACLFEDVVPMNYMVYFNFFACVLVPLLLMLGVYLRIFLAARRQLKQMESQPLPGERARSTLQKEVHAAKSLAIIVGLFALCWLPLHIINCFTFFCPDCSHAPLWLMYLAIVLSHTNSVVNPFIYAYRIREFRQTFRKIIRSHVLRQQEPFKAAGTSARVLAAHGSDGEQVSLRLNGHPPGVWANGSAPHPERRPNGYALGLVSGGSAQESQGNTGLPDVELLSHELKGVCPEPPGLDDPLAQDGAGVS

Row | IC50 [1, 4] | IC50 (Adenosine A2A receptor [2]; [5]) | IC50 (Adenosine A2A receptor [3]; [7]) | IC50 [1, 10] | IC50 (Adenosine A2A receptor [3]; [11]) | Compound | other results
1 | 93 nM | 0.7 nM and 5.4 nM | 96 nM |  |  | Cc1cc(-c2c(OCC3CCOCC3)nc(N)nc2-c2ccc(F)cc2)cc(C(F)F)n1 [Example 55, 5-(2-(difluoromethyl)-6-methylpyridin-4-yl)-4-(4-fluorophenyl)-6-((tetrahydro-2H-pyran-4-yl)methoxy)pyrimidin-2-amine] | IC50 (Adenosine A2A receptor [3]; [6]): 0.54 nM and 0.49 nM
2 | 11.2 nM | 0.51 nM | 1 nM |  |  | Cc1cc(-c2c(OCCN(C)c3ccccn3)nc(N)nc2-c2ccc(F)cc2)cc(C(F)F)n1 [Example 79, 5-(2-(difluoromethyl)-6-methylpyridin-4-yl)-4-(4-fluorophenyl)-6-(2-(methyl(pyridin-2-yl)amino)ethoxy)pyrimidin-2-amine] | 
3 | 469 nM | 4.2 nM |  |  |  | COCC(O)COc1nc(N)nc(-c2ccc(F)cc2)c1-c1cc(C)nc(C(F)F)c1 (centres unmarked) [Example 85, 1-((2-amino-5-(2-(difluoromethyl)-6-methylpyridin-4-yl)-6-(4-fluorophenyl)pyrimidin-4-yl)oxy)-3-methoxypropan-2-ol] | 
4 | 14 nM | 0.24 nM | 12 nM |  |  | Cc1cc(-c2c(OCc3ccccn3)nc(N)nc2-c2ccc(F)cc2)cc(C(F)F)n1 [Example 95, 5-(2-(difluoromethyl)-6-methylpyridin-4-yl)-4-(4-fluorophenyl)-6-(pyridin-2-ylmethoxy)pyrimidin-2-amine] | 
5 | 1780 nM | 4.1 nM |  |  |  | Cc1cc(-c2c(OCCNS(N)(=O)=O)nc(N)nc2-c2ccc(F)cc2)cc(C(F)(F)F)n1 [Example 111] | IC50 (Adenosine A2A receptor [3]; [6]): 2.2 nM and 1.1 nM
6 | 478 nM | 3.9 nM | 55 nM and 139 nM |  |  | CNS(=O)(=O)NCCOc1nc(N)nc(-c2ccccc2)c1-c1cc(C)nc(C(F)(F)F)c1 [Example 121] | IC50 (Adenosine A2A receptor [3]; [6]): 1.5 nM and 1.4 nM
7 | 63 nM | 1.8 nM | 35 nM and 53 nM |  |  | Cc1cc(-c2c(OCCn3ccccc3=O)nc(N)nc2-c2ccc(F)cc2)cc(C(F)F)n1 [Example 122, 1-(2-((2-amino-5-(2-(difluoromethyl)-6-methylpyridin-4-yl)-6-(4-fluorophenyl)pyrimidin-4-yl)oxy)ethyl)pyridin-2(1H)-one] | IC50 (Adenosine A2A receptor [3]; [6]): 0.88 nM and 0.69 nM
8 | 93.2 nM | 1.2 nM and 4.3 nM | 77 nM |  |  | CCc1c(COc2nc(N)nc(-c3ccc(F)cc3)c2-c2cc(C)nc(C(F)F)c2)nnn1CC [Example 135, 4-((1,5-diethyl-1H-1,2,3-triazol-4-yl)methoxy)-5-(2-(difluoromethyl)-6-methylpyridin-4-yl)-6-(4-fluorophenyl)pyrimidin-2-amine] | IC50 (Adenosine A2A receptor [3]; [6]): 3.1 nM and 2.6 nM
9 | 15.8 nM | 0.6 nM and 1.1 nM | 29 nM and 27 nM |  |  | CCc1c(COc2nc(N)nc(-c3ccc(F)cc3)c2-c2cc(C)nc(C(F)F)c2)nnn1C [Example 136, 5-(2-(difluoromethyl)-6-methylpyridin-4-yl)-4-((5-ethyl-1-methyl-1H-1,2,3-triazol-4-yl)methoxy)-6-(4-fluorophenyl)pyrimidin-2-amine] | IC50 (Adenosine A2A receptor [3]; [6]): 2.3 nM
10 | 41.6 nM | 1.4 nM and 4.2 nM | 11 nM |  |  | Cc1cc(-c2c(OCCN(C)c3cccc(OCCO)n3)nc(N)nc2-c2ccc(F)cc2)cc(C(F)F)n1 [Example 154, 2-((6-((2-((2-amino-5-(2-(difluoromethyl)-6-methylpyridin-4-yl)-6-(4-fluorophenyl)pyrimidin-4-yl)oxy)ethyl)(methyl)amino)pyridin-2-yl)oxy)ethan-1-ol] | IC50 (Adenosine A2A receptor [3]; [6]): 1.3 nM
11 |  |  |  |  |  | Cc1cc(-c2c(OCc3nccn3CCC(=O)O)nc(N)nc2-c2ccc(F)cc2)cc(C(F)F)n1 [Example 204, 3-(2-(((2-amino-5-(2-(difluoromethyl)-6-methylpyridin-4-yl)-6-(4-fluorophenyl)pyrimidin-4-yl)oxy)methyl)-1H-imidazol-1-yl)propanoic acid] | IC50 ([1]; Homo sapiens): 456 nM; IC50 (Adenosine A2A receptor [2]; HTRF): 13 nM; IC50 (Adenosine A2A receptor [3]; [8]): 24 nM
12 |  |  |  |  |  | Cc1cc(-c2c(OCc3nccn3C(C)CO)nc(N)nc2-c2ccc(F)cc2)cc(C(F)F)n1 (centres unmarked) [Example 209, 2-(2-(((2-amino-5-(2-(difluoromethyl)-6-methylpyridin-4-yl)-6-(4-fluorophenyl)pyrimidin-4-yl)oxy)methyl)-1H-imidazol-1-yl)propan-1-ol] | IC50 ([1]; Homo sapiens): 125 nM; IC50 (Adenosine A2A receptor [2]; HTRF): 1.9 nM and 4.2 nM; IC50 (Adenosine A2A receptor [3]; [8]): 1.6 nM and 2.4 nM; IC50 (Adenosine A2A receptor [3]; [9]): 84 nM and 97 nM
13 |  |  |  |  |  | Cc1cc(-c2c(OCc3nccn3CCCC(=O)O)nc(N)nc2-c2ccc(F)cc2)cc(C(F)F)n1 [Example 219, 4-(2-(((2-amino-5-(2-(difluoromethyl)-6-methylpyridin-4-yl)-6-(4-fluorophenyl)pyrimidin-4-yl)oxy)methyl)-1H-imidazol-1-yl)butanoic acid] | IC50 ([1]; Homo sapiens): 170 nM; IC50 (Adenosine A2A receptor [2]; HTRF): 9 nM
14 |  |  |  |  |  | Cc1cc(-c2c(OCc3cccc(C(C)(C)O)n3)nc(N)nc2-c2ccc(F)cc2)cc(C(F)F)n1 [Example 225] | IC50 ([1]; Homo sapiens): 15.1 nM; IC50 (Adenosine A2A receptor [2]; HTRF): 18.1 nM; IC50 (Adenosine A2A receptor [3]; [9]): 136 nM and 200 nM and 176 nM
15 |  |  |  | 424 nM | 432 nM and 338 nM | Cc1cc(-c2c(OCc3ccc(=O)n(C)n3)nc(N)nc2-c2ccc(F)cc2)cc(C(F)F)n1 [Example 422, 6-(((2-amino-5-(2-(difluoromethyl)-6-methylpyridin-4-yl)-6-(4-fluorophenyl)pyrimidin-4-yl)oxy)methyl)-2-methylpyridazin-3(2H)-one] | 
16 |  |  |  | 33.3 nM | 35 nM and 74 nM and 23 nM | CNC(=O)OCc1cccc(COc2nc(N)nc(-c3ccc(F)cc3)c2-c2cc(C)nc(C(F)F)c2)n1 [Example 425, (6-(((2-amino-5-(2-(difluoromethyl)-6-methylpyridin-4-yl)-6-(4-fluorophenyl)pyrimidin-4-yl)oxy)methyl)pyridin-2-yl)methyl methylcarbamate] | IC50 ([1]; replicate values separated by /): 29 nM
17 |  |  |  | 33 nM | 59 nM and 43 nM | Cc1cc(-c2c(OCc3cccc(COC(N)=O)n3)nc(N)nc2-c2ccc(F)cc2)cc(C(F)F)n1 [Example 429, (6-(((2-amino-5-(2-(difluoromethyl)-6-methylpyridin-4-yl)-6-(4-fluorophenyl)pyrimidin-4-yl)oxy)methyl)pyridin-2-yl)methyl carbamate] | 
18 |  |  |  | 2000 nM | 412 nM and 315 nM and 310 nM | Cc1cc(-c2c(OCc3cccc(C(C#N)(CCO)CCO)n3)nc(N)nc2-c2ccc(F)cc2)cc(C(F)F)n1 [Example 431, 2-(6-(((2-amino-5-(2-(difluoromethyl)-6-methylpyridin-4-yl)-6-(4-fluorophenyl)pyrimidin-4-yl)oxy)methyl)pyridin-2-yl)-4-hydroxy-2-(2-hydroxyethyl)butanenitrile] | 
19 |  |  |  | 59 nM | 342 nM and 210 nM | Cc1cc(-c2c(OCc3cccc(CNCC(N)=O)n3)nc(N)nc2-c2ccc(F)cc2)cc(C(F)F)n1 [Example 433, 2-(((6-(((2-amino-5-(2-(difluoromethyl)-6-methylpyridin-4-yl)-6-(4-fluorophenyl)pyrimidin-4-yl)oxy)methyl)pyridin-2-yl)methyl)amino)acetamide] | 
20 |  |  |  | 411 nM | 346 nM and 290 nM | Cc1cc(-c2c(OCc3ccnc(OC(CO)CO)n3)nc(N)nc2-c2ccc(F)cc2)cc(C(F)F)n1 [Example 434, 2-((4-(((2-amino-5-(2-(difluoromethyl)-6-methylpyridin-4-yl)-6-(4-fluorophenyl)pyrimidin-4-yl)oxy)methyl)pyrimidin-2-yl)oxy)propane-1,3-diol] | 
21 |  |  |  | 232 nM | 282 nM | Cc1cc(-c2c(OCc3cccc(CNCC(=O)N(C)C)n3)nc(N)nc2-c2ccc(F)cc2)cc(C(F)F)n1 [Example 437, 2-(((6-(((2-amino-5-(2-(difluoromethyl)-6-methylpyridin-4-yl)-6-(4-fluorophenyl)pyrimidin-4-yl)oxy)methyl)pyridin-2-yl)methyl)amino)-N,N-dimethylacetamide] | 
22 |  |  |  | 252 nM | 103 nM | Cc1cc(-c2c(OCc3cccc(C4(CCO)CCOC4=O)n3)nc(N)nc2-c2ccc(F)cc2)cc(C(F)F)n1 (centres unmarked) [Example 439, 3-(6-(((2-amino-5-(2-(difluoromethyl)-6-methylpyridin-4-yl)-6-(4-fluorophenyl)pyrimidin-4-yl)oxy)methyl)pyridin-2-yl)-3-(2-hydroxyethyl)dihydrofuran-2(3H)-one] | 
23 |  |  |  | 95 nM | 215 nM | CNC(=O)CNCc1cccc(COc2nc(N)nc(-c3ccc(F)cc3)c2-c2cc(C)nc(C(F)F)c2)n1 [Example 440, 2-(((6-(((2-amino-5-(2-(difluoromethyl)-6-methylpyridin-4-yl)-6-(4-fluorophenyl)pyrimidin-4-yl)oxy)methyl)pyridin-2-yl)methyl)amino)-N-methylacetamide] | 
24 |  |  |  | 208 nM | 177 nM | Cc1cc(-c2c(OCc3cccc(NC(CO)CO)n3)nc(N)nc2-c2ccc(F)cc2)cc(C(F)F)n1 [Example 442, 2-((6-(((2-amino-5-(2-(difluoromethyl)-6-methylpyridin-4-yl)-6-(4-fluorophenyl)pyrimidin-4-yl)oxy)methyl)pyridin-2-yl)amino)propane-1,3-diol] | 
